The test system of this assay is plasma fibrinogen. Description: Fibrinogen-lowering effect in spontaneously hypercholesterolemia (SHC) rats. It is filed as in vivo, rat. As to the method: Candesartan cilexetil (TCV-116; 0.5% methylcellulose 100 cp suspension; 1 mg/kg (2 ml/kg)) were administered orally to 10-week-old SHC rats once a day for a 6-week period. 0.5% methylcellulose 100 cp suspensions were administered to the control group (vehicle-treated group) in a volume of 2 ml/kg. Fibrinogen concentrations in plasma were measured as follows. At the end of experiments, the blood was withdrawn from aorta abdominalis into 3.8% trisodium citrate solution (Citral, Yamanouchi Pharmaceutical Co.,Ltd., final concentration of 0.38%) and the plasma were prepared by centrifuging at 3000 rpm at room temperature for 20 minutes. The fibrinogen concentration was determined using fibrinogen test RD (Roche Diagnostics) and the clot timer (B-10, Sarstedt, Inc.) with reference to a standard rat fibrinogen (F-6755, Sigma).

In turn, `CCOc1nc2cccc(C(=O)OC(C)OC(=O)OC3CCCCC3)c2n1Cc1ccc(-c2ccccc2-c2nnn[nH]2)cc1` (centres unmarked) [TCV-116, 1-(cyclohexyloxycarbonyloxy)ethyl 2-ethoxy-1-[[2′-(1H-tetrazol-5-yl)biphenyl-4-yl]methyl]-benzimidazole-7-carboxylate] had a Fibrinogen level (SHC rat plasma, 1 mg/kg/day orally once a day for 6 weeks, Mean ± SE, n = 5, p < 0.01 vs vehicle) of 354.0 ± 29.1 mg/dL. The “Effect on plasma fibrinogen level versus control group” value (SHC rat, 1 mg/kg, comparison with vehicle-treated group) was “decreased the plasma fibrinogen level of SHC rat significantly”.
